Reference: patent publication US20030083250A1, “Anti-tumor chemotherapy by administration of cyclophosphamide and erythropoeitin” (priority 2001, published 2003)
Entries after “also recorded” stand apart in the source; their conditions may differ.

Legend:
[1] = test system: FSaIIC Murine Fibrosarcoma; conditions: experimental sarcomas of mice; cited from earlier work
DS-sarcoma = assay: Growth of subcutaneous DS-sarcomas in rats (tumor volume, volume doubling time, growth delay after cyclophosphamide); assay type: in vivo, rat; conditions: for volume doubling time during the regrowth period: after cyclophosphamide; for growth delay following chemotherapy: at the 1.3 ml tumor volume level, cyclophosphamide 60 mg/kg i.p. Day 5; for volume doubling time / impact on tumor growth rate per se: tumors not treated with cyclophosphamide; for impact on tumor growth rate per se: carboplatin four days before implantation, rHuEPO 1000 IU/kg three times per week
Protocol: (§1) Male Sprague-Dawley rats (Charles River Wiga, Sulzfeld, Germany; body weight 100 to 160 g) housed in our animal care facility were used in the study. Animals were allowed access to food and acidified water ad libitum before and throughout the investigation. All experiments had previously been approved by the regional animal ethics committee and were conducted in accordance with the German Law for Animal Protection and the UKCCCR Guidelines [United Kingdom Coordinating Committee on Cancer Research (UKCCCR) guidelines for the welfare of animals in experimental neoplasia (2 nd edit). Br. J. Cancer, (1998) 77:1-10].
Solid DS-sarcomas were induced by injecting DS-sarcoma cells (0.4 ml approximately 10^4 cells/μl) subcutaneously into the hind food dorsum. […] Tumor volumes were determined by measuring the three orthogonal diameters of the tumor and using an ellipsoid approximation with the formula: V=d1×d2×d3×π/6. From the volume growth curves the volume doubling time was calculated during exponential tumor growth.
(§2) Prolonged anemia was induced by a single injection of carboplatin (Sigma-Aldrich, Steinheim, Germany) at a dose of 50 mg/kg body weight (dissolved in isotonic saline at a concentration of 20 mg/ml) into the tail vein four days before tumor implantation.
(§3) Recombinant human erythropoietin (epoetin alpha, ERYPO 4000®; Janssen-Cilag, Neuss, Germany) in isotonic NaCl solution was administered (1000 IU/kg) three times per week over sixteen days by s.c. injection starting eleven days before tumor implantation. Control animals received equivalent volumes of the solvent (0.5 ml/ kg).
Animals treated with equivalent volumes of the solvent (isotonic saline 6 ml/kg) served as controls.
Group 1 (non-anemic): Animals received cyclophosphamide on Day 5 after tumor implantation.
Group 2 (anemic): Animals treated for four days before tumor implantation with carboplatin for anemia induction. Cyclophosphamide was administered on Day 5 after implantation.
Group 3 (anemic, rHuEPO-treated): Animals treated with rHuEPO three times per week from eleven days before tumor implantation and up until the day of cyclophosphamide application. Carboplatin (for anemia induction) was administered on Day −4 and cyclophosphamide was applied on Day 5.
Controls for all three experimental groups received equivalent volumes of the solvent instead of cyclophosphamide on Day 5 after tumor implantation.
(§4) Results are expressed as means±standard error of the mean (SEM). Differences between the groups were assessed by the two-tailed Wilcoxon test for unpaired samples. The significance level was set at α=5% for all comparisons. For characterizing the effect of chemotherapy on tumor growth, the growth delay induced by cyclophosphamide was calculated.

Male Sprague-Dawley rats = assay: Blood cell parameters (automated hematology analyzer) in rats with carboplatin-induced anemia, with or without rHuEPO; assay type: in vivo, rat; conditions: for CHb (hemoglobin concentration): day of cyclophosphamide treatment (Day 5 after tumor implantation), carboplatin 50 mg/kg i.v. on Day -4, rHuEPO 1000 IU/kg s.c. three times per week
Protocol: as §1, §2, §3
Besides tumor growth, blood cell parameters were assessed using a multi-parameter, automated hematology analyzer (Ac-T8; Beckman-Coulter, Krefeld, Germany) whereby erythrocyte, white blood cell and platelet counts together with the mean cell volume (MCV) were measured by an impedance technique and the hemoglobin concentration by a photometric method. In addition, the analyzer uses the measured values to calculate several other parameters (e.g., hematocrit, mean corpuscular hemoglobin content [MCH] and mean corpuscular hemoglobin concentration [MCHC]). All measurements were performed using a sample of venous blood (20 μl) taken from a tail vein.
as §4

[2] = test system: human ovarian cancer xenographs; conditions: EPO alone (control group); cited from earlier work
experimental tumours = conditions: in vivo; cited from earlier work
experimental tumors = conditions: after correcting anemia; 76% in moderate anemia, 21% before; cited from earlier work
anemic cancer patients = conditions: 150 IU/kg t.i.w. vs placebo; after the first month of therapy; platinum or non-platinum chemotherapy; cited from earlier work
[3] = day of cyclophosphamide treatment, mean ± SEM

O=P1(N(CCCl)CCCl)NCCCO1 (stereo not drawn) [cyclophosphamide]
cell kill in oxygenated versus hypoxic tumor areas [1]: more pronounced cell kill | volume doubling time during the regrowth period (DS-sarcoma; anemic group): 4.0 days | volume doubling time during the regrowth period (DS-sarcoma; non-anemic group): 4.6 days | growth delay following chemotherapy (DS-sarcoma; anemic (carboplatin) group): 8.6 days | growth delay following chemotherapy (DS-sarcoma; non-anemic group): approximately 13.3 days | growth delay (DS-sarcoma; single dose 60 mg/kg i.p., stated in the methods, not curative): approximately eight to ten

N[C@@H](Cc1ccc(N(CCCl)CCCl)cc1)C(=O)O [melphalan]
cell kill in oxygenated versus hypoxic tumor areas [1]: more pronounced cell kill

N.N.O=C([O-])C1(C(=O)[O-])CCC1.[Pt+2] [carboplatin]
cell kill in oxygenated versus hypoxic tumor areas [1]: more pronounced cell kill | CHb (hemoglobin concentration) (Male Sprague-Dawley rats; mean ± SEM): 98 g/L | CHb (hemoglobin concentration) (Male Sprague-Dawley rats; mean ± SEM, listed as CARBOPLATIN): 98 ± 3 g/L | Hematocrit (Male Sprague-Dawley rats; [3]): 28 ± 1% | Mean Corpuscular Hb Concentration (MCHC) (Male Sprague-Dawley rats; [3]): 348 ± 5 g/L | Mean Corpuscular Hemoglobin (MCH) (Male Sprague-Dawley rats; [3]): 22 ± 1 pg | Mean Corpuscular Volume (MCV) (Male Sprague-Dawley rats; [3]): 63 ± 1 fL | RBC count (Male Sprague-Dawley rats; [3]): 4.5 ± 0.2 10^6/μl | mean cHb (Male Sprague-Dawley rats; nine days after a single dose of carboplatin 50 mg/kg i.v., start approximately 130 g/l): about 100 g/l | volume doubling time (DS-sarcoma): approximately 1.8 days | impact on tumor growth rate per se (DS-sarcoma): does not affect the growth of DS sarcomas; also recorded: no impact per se on the growth rate of the tumors; also recorded: no effect on the growth rate of DS-sarcomas

rHuEPO: Recombinant human erythropoietin (epoetin alpha, ERYPO 4000; Janssen-Cilag)
cHb (Male Sprague-Dawley rats; continuous rHuEPO treatment in otherwise untreated rats, within one week): 153 g/L | CHb (hemoglobin concentration) (Male Sprague-Dawley rats; mean ± SEM): 137 g/L | effect on carboplatin-induced anemia at the time of chemotherapy (Male Sprague-Dawley rats; rHuEPO for approximately one week prior to carboplatin application): prevention (or reversal) of the carboplatin-induced anemia | effect of reversing anemia on cytotoxicity of cyclophosphamide chemotherapy (DS-sarcoma; DS sarcomas, anemia cHb=98 g/l): significantly increases the cytotoxicity of this chemotherapy | volume doubling time during the regrowth period (DS-sarcoma; rHuEPO-treated animals): 4.3 days | growth delay following chemotherapy (DS-sarcoma; rHuEPO-treated group (carboplatin + rHuEPO)): approximately 13.3 days | volume doubling time (DS-sarcoma): approximately 1.8 days | impact on tumor growth rate per se (DS-sarcoma): no impact per se on the growth rate of the tumors; also recorded: no impact on the tumor growth per se | changes in tumor growth [2]: no changes in tumor growth | effect of correction of anemia on radiosensitivity (experimental tumours): able to improve the radiosensitivity | fraction of hypoxic pO2 values ≦2.5 mmHg (experimental tumors): 55% | effect on hematocrit and transfusion requirements (anemic cancer patients): increase hematocrit and decrease transfusion requirements
